Measurements as given in patent US7423159B2, “Agent for preventing or treating neuropathy” (Takeda Pharmaceutical Company Limited, priority 2002, dated 2008).

With Cn1ncc(/C=C/C(=O)Nc2ccc(Cc3nc4c(s3)CCCC4)cc2)c1-c1ccc(F)cc1 [Example 124, (2E)-3-[5-(4-Fluorophenyl)-1-methyl-1H-pyrazol-4-yl]-N-[4-(4,5,6,7-tetrahydro-1,3-benzothiazol-2-ylmethyl)phenyl]acrylamide] the melting point was 205 to 206 °C.
Compound CCc1csc(Cc2ccc(NC(=O)/C=C/c3cnn(C)c3-c3ccc(F)cc3)cc2)n1 [Example 125, (2E)-N-{4-[(4-ethyl-1,3-thiazol-2-yl)methyl]phenyl}-3-[5-(4-fluorophenyl)-1-methyl-1H-pyrazol-4-yl]acrylamide] has a melting point of 211 to 212 °C.
Compound CCOC(=O)c1csc(Cc2ccc(NC(=O)/C=C/c3cnn(C)c3-c3ccc(F)cc3)cc2)n1 [Example 126, Ethyl 2-[4-({(2E)-3-[5-(4-fluorophenyl)-1-methyl-1H-pyrazol-4-yl]prop-2-enoyl}amino)benzyl]-1,3-thiazole-4-carboxylate] has a melting point of 189 to 190 °C.
Compound Cc1csc(Cc2ccc(NC(=O)/C=C/c3cnn(C)c3-c3ccc(F)cc3)cc2)n1 [Example 127, (2E)-3-[5-(4-Fluorophenyl)-1-methyl-1H-pyrazol-4-yl]-N-(4-[(4-methyl-1,3-thiazol-2-yl)methyl)phenyl]acrylamide] has a melting point of 217 to 218 °C.
With Cn1ncc(/C=C/C(=O)Nc2ccc(Cc3nccs3)cc2)c1-c1ccc(F)cc1 [Example 128, (2E)-3-[5-(4-Fluorophenyl)-1-methyl-1H-pyrazol-4-yl]-N-{4-[(1,3-thiazol-2-yl)methyl]phenyl}acrylamide] the melting point was 209 to 210 °C.
With Cn1ncc(/C=C/C(=O)Nc2ccc(Cc3nnco3)cc2)c1-c1ccc(F)cc1 [Example 129, (2E)-3-[5-(4-Fluorophenyl)-1-methyl-1H-pyrazol-4-yl]-N-[4-(1,3,4-oxadiazol-2-ylmethyl)phenyl]acrylamide] the melting point was 223 to 224 °C.
Cn1ncc(/C=C/C(=O)Nc2ccc(CCc3nccs3)cc2)c1-c1ccc(F)cc1 [Example 130, (2E)-3-[5-(4-Fluorophenyl)-1-methyl-1H-pyrazol-4-yl]-N-(4-[2-(1,3-thiazol-2-yl)ethyl]phenyl}acrylamide] gave a melting point of 201 to 202 °C.
Cn1ncc(/C=C/C(=O)Nc2ccc(Cc3nc(C(=O)O)cs3)cc2)c1-c1ccc(F)cc1 [Example 131, 2-[4-({(2E)-3-[5-(4-fluorophenyl)-1-methyl-1H-pyrazol-4-yl]prop-2-enoyl}amino)benzyl]-1,3-thiazole-4-carboxylic acid] gave a melting point of 226 to 227 °C.
Cn1ncc(/C=C/C(=O)Nc2ccc(Cc3nc(C(N)=O)cs3)cc2)c1-c1ccc(F)cc1 [Example 132, 2-[4-({(2E)-3-[5-(4-fluorophenyl)-1-methyl-1H-pyrazol-4-yl]prop-2-enoyl}amino)benzyl]-1,3-thiazole-4-carboxamide] gave a melting point of 159 to 160 °C.
Cn1ncc(/C=C/C(=O)Nc2ccc(CC(=O)O)cc2)c1-c1ccc(F)cc1 [Example 133, [4-({(2E)-3-[5-(4-fluorophenyl)-1-methyl-1H-pyrazol-4-yl]prop-2-enoyl]amino}phenyl]acetic acid] gave a melting point of 245 to 246 °C.
For CCc1nnc(Cc2ccc(NC(=O)/C=C/c3cnn(C)c3-c3ccc(F)cc3)cc2)o1 [Example 134, (2E)-N-{4-[(5-ethyl-1,3,4-oxadiazol-2-yl)methyl]phenyl}-3-[5-(4-fluorophenyl)-1-methyl-1H-pyrazol-4-yl]acrylamide], the melting point was 164 to 165 °C.
Cc1nnc(Cc2ccc(NC(=O)/C=C/c3cnn(C)c3-c3ccc(F)cc3)cc2)o1 [Example 136, (2E)-3-[5-(4-fluorophenyl)-1-methyl-1H-pyrazol-4-yl]-N-{4-[(5-methyl-1,3,4-oxadiazol-2-yl)methyl]phenyl}acrylamide] showed a melting point of 151 to 152 °C.
Work on Cn1ncc(/C=C/C(=O)Nc2ccc(CN)cc2)c1-c1ccc(F)cc1 [Example 137, (2E)-N-[4-(aminomethyl)phenyl]-3-[5-(4-fluorophenyl)-1-methyl-1H-pyrazol-4-yl]acrylamide] yielded a melting point of 201 to 202 °C.
